“And” between values parts separate entries of the source, which are not always exact repeats. Equal entries are not always repeated. “Also recorded” adds a separate entry of the source.
Columns and labels:
human CatV = molecular target: T1, human CatV (Homo sapiens, UniProt O60911); test: Cathepsin inhibition test, CatV; format: biochemical; conditions: Fig. S3 panel c, single replicates
T1 construct: made in house

LC-HK2 cells = test: Fluorescence microscopy, S-protein vesicle size in infected LC-HK2 cells; format: cell-based, human; conditions: 1.5 µM, versus control
Procedure: LC-HK2 was cultivated on coverslips (13 mm diameter) to approximately 80% confluence. The cells were pre-treated for 2 h with 1.5 µM of S-Calpeptin diluted in DMEM supplemented with 2.5% FBS. The compounds were removed, and SARS-CoV-2 strain diluted in DMEM supplemented with 2.5% FBS was added to LC-HK2 cells at M.O.I of 0.05, allowing absorption for 1 h. The viral inoculum was removed, and cells were gently washed with PBS without calcium and magnesium. The cells were incubated in the continued presence of 1.5 µM of S-Calpeptin diluted in DMEM supplemented with 2.5% FBS and were examined by fluorescence microscopy at the time points 32, 40, 48, 56, 64 and 72 h post-infection.
For this purpose, the cells were fixed and permeabilized with 3.7% formaldehyde solution (Sigma-Aldrich, F1635) containing 0.2% Triton X-100 in PBS 1×. […] The images were captured using fluorescence range intensity adjusted identically within each experimental series.
Vesicles size quantifications were obtained from 2D maximum projections of Z stacks exported as grayscale TIFs (16-bit depth) using Automated Image Analysis in Zen 2.6 blue software (ZEISS). […]
In the Fluorescence microscopy evaluation, the P-values were generated by unpaired t-test using GraphPad Prism version 8.00 (La Jolla, CA, USA, www.graphpad.com). […]

SARS-CoV-2 M^pro = molecular target: T2, SARS-CoV-2 M^pro (Severe acute respiratory syndrome coronavirus 2, UniProt P0DTD1); format: biochemical; conditions: mean with 95% confidence interval; 100 nM M^pro, pH 7.3, 37 °C
T2 construct: Initially reported to target the viral main protease (M^pro); made in house
Procedure: In the enzyme inhibition assays, the initial velocities were calculated from the initial linear portions of their curves, assuming steady-state kinetics. IC50 and Ki values were calculated using GraphPad Prism software. Z-FR-AMC (CatK and CatV), Z-RR-AMC (CatB and CatL), and QS1 or Acetyl-VKLQ-AMC (M^pro) substrates were used to monitor reactions. These measurements were done in four independent duplicates or triplicates, respectively.

CatL [1] = molecular target: T3, CatL (Homo sapiens, UniProt P07711); test: Cathepsin inhibition test, CatL; format: biochemical; conditions: for Residual activity (Vi/V0): Fig. S3 panel b, single replicates
T3 construct: made in house

SARS-CoV-2-GFP = test: microbe, parasite or virus in culture; format: cell-based; conditions: mean with standard error, read-out: VERO E6 EC50
SARS-CoV-2 [2] = test: Viral loading determination via RT-qPCR in LC-HK2 cells; format: cell-based; conditions: for Viral titer (% control): LC-HK2, RT-qPCR
CatL [3] = molecular target: T3, CatL; test: Reversibility of covalent cathepsin inhibition (CatL, 60 min incubation); format: biochemical; conditions: 1 nM CatL, 1–80 nM inhibitor, 37 °C
Excerpt: We observed no increase in relative inhibition over time, thus concluding that the covalent bond between cathepsins and inhibitors is reversible.

SARS-CoV-2 [4] = test: Cytopathic effect inhibition assay in LC-HK2 cells; format: cell-based; conditions: for CPE inhibition (%): LC-HK2
[5] = inhibitor 0.105 nM, 0.000105 µM
[6] = inhibitor 0.189 nM, 0.000189 µM
[7] = inhibitor 0.612 nM, 0.000612 µM
[8] = inhibitor 1.103 nM, 0.001103 µM
[9] = inhibitor 1.985 nM, 0.001985 µM

T1 sequence (O60911 114-334): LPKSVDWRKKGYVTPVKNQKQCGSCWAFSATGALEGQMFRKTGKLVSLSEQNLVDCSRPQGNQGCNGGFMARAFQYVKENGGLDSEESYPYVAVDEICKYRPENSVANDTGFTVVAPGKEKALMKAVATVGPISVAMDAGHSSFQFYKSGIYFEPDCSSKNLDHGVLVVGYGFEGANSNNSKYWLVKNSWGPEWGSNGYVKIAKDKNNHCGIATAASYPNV
T3 sequence (P07711 114-333): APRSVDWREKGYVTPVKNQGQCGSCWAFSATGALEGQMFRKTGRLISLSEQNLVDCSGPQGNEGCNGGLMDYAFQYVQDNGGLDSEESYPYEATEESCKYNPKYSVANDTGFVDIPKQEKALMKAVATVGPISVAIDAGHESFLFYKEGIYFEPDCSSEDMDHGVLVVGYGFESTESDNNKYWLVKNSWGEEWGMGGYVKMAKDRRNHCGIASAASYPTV

CCCC[C@H](NC(=O)[C@H](CC(C)C)NC(=O)OCc1ccccc1)C(O)S(=O)(=O)[O-].[Na+] (some centres unmarked) [S-Calpeptin]
Residual activity (Vi/V0) (human CatV; inhibitor 0.010 nM, 10 pM): 0.8982 and 0.9438 and 1.016 and 0.9432 and 0.9838 and 0.9734 and 1.009 and 0.9925
Residual activity (Vi/V0) (human CatV; inhibitor 0.018 nM, 18 pM): 0.7063 and 0.8048 and 0.9697 and 0.9452 and 0.965 and 0.9273 and 1.044 and 0.9905
Residual activity (Vi/V0) (human CatV; inhibitor 0.032 nM, 32 pM): 0.4743 and 0.664 and 0.9379 and 0.8845 and 0.8627 and 0.9319 and 1.237 and 0.91
Residual activity (Vi/V0) (human CatV; inhibitor 0.058 nM, 58 pM): 0.01132 and 0.01674 and 0.9458 and 0.6877 and 0.9713 and 0.8348 and 1.1467 and 0.7642
Residual activity (Vi/V0) (human CatV; [5]): 0.5008 and 0.5002 and 0.8948 and 0.8318 and 0.8983 and 0.7019 and 1.143 and 0.6207
Residual activity (Vi/V0) (human CatV; [6]): 0.2447 and 0.2374 and 0.7712 and 0.7606 and 0.8108 and 0.5224 and 1.02 and 0.4249
Residual activity (Vi/V0) (human CatV; inhibitor 0.340 nM, 0.00034 µM): 0.1518 and 0.1386 and 0.6304 and 0.6112 and 0.6332 and 0.3803 and 0.6867 and 0.2117
Residual activity (Vi/V0) (human CatV; [7]): 0.103 and 0.1097 and 0.4478 and 0.4871 and 0.5442 and 0.179 and 0.3919 and 0.1269
Residual activity (Vi/V0) (human CatV; [8]): 0.05798 and 0.06049 and 0.2946 and 0.2993 and 0.3554 and 0.1895 and 0.2004 and 0.05784
Residual activity (Vi/V0) (human CatV; [9]): 0.03342 and 0.03103 and 0.1055 and 0.1184 and 0.07678 and 0.1061 and 0.06687 and 0.038
Residual activity (Vi/V0) (human CatV; inhibitor 3.572 nM, 0.003572 µM): 0.01297 and 0.01099 and 0.0386 and 0.03676 and 0.03768 and 0.02078 and 0.03085 and 0.02157
Residual activity (Vi/V0) (human CatV; inhibitor 6.430 nM, 0.00643 µM): 0.008943 and 0.006591 and 0.009607 and 0.008666 and 0.01717 and 0.01084 and 0.01202 and 0.007959
Residual activity (Vi/V0) (human CatV; inhibitor 11.547 nM, 0.011547 µM): 0.003173 and 0.004275 and 0.001602 and 0.001011
impact on vesicle morphology / S-protein vesicle size (LC-HK2 cells): did not reveal significant differences; also recorded: no substantial impact on vesicle morphology
Ki (SARS-CoV-2 M^pro): 4.7 µM
Residual activity (Vi/V0) (CatL [1]; inhibitor 0.010 nM, 10 pM): 1.426 and 1.05 and 1.025 and 1.009 and 1.011 and 1.078 and 1.028 and 1.031 and 1.036 and 1.201
Residual activity (Vi/V0) (CatL [1]; inhibitor 0.018 nM, 18 pM): 1.349 and 1.024 and 1.036 and 0.8728 and 0.9988 and 0.9818 (2×) and 1.042 and 1.062 and 1.149
Residual activity (Vi/V0) (CatL [1]; inhibitor 0.032 nM, 32 pM): 1.453 and 0.9142 and 1.1 and 1.088 and 1.079 and 0.9024 and 0.9567 and 1.006 and 0.9803 and 1.2694
Residual activity (Vi/V0) (CatL [1]; inhibitor 0.058 nM, 58 pM): 1.377 and 1.0256 and 0.8968 and 0.9231 and 0.8862 and 0.9577 and 1.001 and 1.006 and 1.052 and 1.254
Residual activity (Vi/V0) (CatL [1]; [5]): 1.053 and 0.914 and 0.68 and 0.6925 and 0.711 and 0.8569 and 0.909 and 1.0072 and 0.8377 and 1.071
Residual activity (Vi/V0) (CatL [1]; [6]): 0.9886 and 0.7158 and 0.5095 and 0.5746 and 0.5088 and 0.7745 and 0.7818 and 0.8193 and 0.7501 and 1.054
Residual activity (Vi/V0) (CatL [1]; inhibitor 0.340 nM, 0.00034 µM): 0.5984 and 0.5107 and 0.3117 and 0.3431 and 0.2757 and 0.5388 and 0.5659 and 0.5589 and 0.4129 and 0.6122
Residual activity (Vi/V0) (CatL [1]; [7]): 0.6669 and 0.3311 and 0.2683 and 0.3139 and 0.2767 and 0.6359 and 0.6301 and 0.62 and 0.515 and 0.8313
Residual activity (Vi/V0) (CatL [1]; [8]): 0.5114 and 0.2133 and 0.2013 and 0.1965 and 0.1624 and 0.4143 and 0.3924 and 0.3311 and 0.3975 and 0.5758
Residual activity (Vi/V0) (CatL [1]; [9]): 0.3099 and 0.145 and 0.1192 and 0.1108 and 0.1144 and 0.3088 and 0.318 and 0.3267 and 0.2219 and 0.2968
Ki (CatL [1]; mean with standard deviation and 95% confidence interval, pH 5.5, 37 °C): 0.148 nM
EC50 (SARS-CoV-2-GFP): 120 ± 54 nM
EC50 (SARS-CoV-2 [2]; LC-HK2, RT-qPCR, 72 h post-infection, read-out: Viral titer EC50): 630 nM
Viral titer (% control) (SARS-CoV-2 [2]; 0.0006 μM): 100 % control
Viral titer (% control) (SARS-CoV-2 [2]; 0.0012 μM): 100 % control
Viral titer (% control) (SARS-CoV-2 [2]; 0.0024 μM): 100 % control
Viral titer (% control) (SARS-CoV-2 [2]; 0.0049 μM): 100 % control
Viral titer (% control) (SARS-CoV-2 [2]; 0.0098 μM): 100 % control
Viral titer (% control) (SARS-CoV-2 [2]; 0.0195 μM): 100 % control
Viral titer (% control) (SARS-CoV-2 [2]; 0.0391 μM): 100 % control
Viral titer (% control) (SARS-CoV-2 [2]; 0.0781 μM): 100 % control
Viral titer (% control) (SARS-CoV-2 [2]; 0.1563 μM): 100 % control
Viral titer (% control) (SARS-CoV-2 [2]; 0.3125 μM, listed as S-Calpepin): 56.49 % control and 49.6 % control
Viral titer (% control) (SARS-CoV-2 [2]; 0.625 μM, listed as S-Calpepin): 69.04 % control and 44.94 % control
Viral titer (% control) (SARS-CoV-2 [2]; 1.25 μM, listed as S-Calpepin): 38.67 % control and 33.45 % control
Viral titer (% control) (SARS-CoV-2 [2]; 2.5 μM, listed as S-Calpepin): 33.13 % control and 30.16 % control
Viral titer (% control) (SARS-CoV-2 [2]; 100 μM): 0 % control
reversibility of covalent bond to cathepsin (CatL [3]): reversible
EC50 (SARS-CoV-2 [4]; LC-HK2, CellTiter-Glo, 72 h post-infection, read-out: CPE inhibition EC50): 70 nM
CPE inhibition (%) (SARS-CoV-2 [4]; 0.000000000001 μM (first of two lines so printed, r18)): 0%
CPE inhibition (%) (SARS-CoV-2 [4]; 0.000000000001 μM (second line, r19)): 0%
CPE inhibition (%) (SARS-CoV-2 [4]; 0.00000000001 μM): 0%
CPE inhibition (%) (SARS-CoV-2 [4]; 0.0000000001 μM): 0%
CPE inhibition (%) (SARS-CoV-2 [4]; 0.000000001 μM): 0%
CPE inhibition (%) (SARS-CoV-2 [4]; 0.00000001 μM, listed as S-Calpepin, 10 fM): 4.03% and 3.04%
CPE inhibition (%) (SARS-CoV-2 [4]; 0.0000001 μM, listed as S-Calpepin, 100 fM): 0% and 1.04%
CPE inhibition (%) (SARS-CoV-2 [4]; 0.000001 μM, listed as S-Calpepin, 1 pM): 0% and 4.71%
CPE inhibition (%) (SARS-CoV-2 [4]; 0.00001 μM, listed as S-Calpepin, 10 pM): 5.52% and 8.92%
CPE inhibition (%) (SARS-CoV-2 [4]; 0.0001 μM, listed as S-Calpepin): 7.19% and 6.77%
CPE inhibition (%) (SARS-CoV-2 [4]; 0.001 μM, listed as S-Calpepin): 23.15% and 18.35%
CPE inhibition (%) (SARS-CoV-2 [4]; 0.01 μM, listed as S-Calpepin): 22.53% and 19.69%
CPE inhibition (%) (SARS-CoV-2 [4]; 0.1 μM, listed as S-Calpepin): 56.52% and 41.43%
CPE inhibition (%) (SARS-CoV-2 [4]; 1 μM, listed as S-Calpepin): 87.89% and 72.23%
CPE inhibition (%) (SARS-CoV-2 [4]; 10 μM, listed as S-Calpepin): 85.17% and 78.3%
